Data reported in patent US20130316374A1, “BREAST CANCER DIAGNOSTICS” (IMBA - INSTITUT FUR MOLEKULARE BIOTECHNOLOGIE GMBH, priority 2010, published 2013).

Tests used:
Lin-CD24+CD49f^hi cells = test: FACS quantification of MaSC-enriched CD24+CD49high population from mammary glands; type: in vivo, mouse; settings: MPA for 3 days
Protocol: a, Epithelial proliferation in mammary glands of control littermates and RANK^Δmam females 3 days after sham treatment and MPA implantation. Proliferation was determined by in situ Ki67 immunostaining. b,c, Marked increase of the stem cell-enriched CD24^+CD49^high population (MaSC) in MPA-treated mammary glands in control but not in RANK^Δmam mammary glands. b, Representative FACS profiles showing CD24 and CD49 expression of lineage negative (CD31^− (endothelial cells) CD45^− (hematopoietic cells) […] (erythroid cells)) of mammary MaSCs from MPA- or sham-treated 8-week old virgin females. c, Quantification of MaSC-enriched CD24^+CD49^high population from mammary glands of MPA- or sham-treated virgin RANK^Δmam and littermate control females. For all MaSCs experiments mice were treated with MPA for 3 days. n=4 per group+/−sem. *P<0.05; ***P<0.001 (Student's t-test).
Recently it has been reported that endogenous progesterone affects the numbers of Lin-CD24+CD49f^hi stem cells during pregnancy^15 and the estrous cycle^16. In both studies, the RANKL/RANK system was implicated based on in vivo whole body Ab blocking studies and RT-PCR expression, however, it was not known whether this is a direct effect of RANKL-RANK in mammary epithelial cells rather than a secondary effect. Therefore it was assayed whether progestins such as MPA can also expand Lin-CD24+CD49f^hi cells.

mammary epithelial cells = test: γ-irradiation induced mammary epithelial cell apoptosis in vivo (active Caspase 3); parameters: species or system mouse; settings: 5 Gray
Protocol: a, Western blotting for phosphorylated (P) IKKα, total IKKα, phosphorylated (P) p65 NFκB, total p65 NFκB, phosphorylated (P) IκBα, and total IκBα in isolated primary mouse mammary gland epithelial cells (MECs) in response to RANKL stimulation (1 μg/ml). […] Expression was determined by qRT-PCR. […] Apoptosis was detected by immunostaining for active Caspase 3. f, Apoptotic nuclei of epithelial cells (arrows) are shown for representative mammary gland sections. Magnifications ×40. g, Quantification of mammary epithelial apoptosis. A minimum of 5000 nuclei was counted for each mouse. […]
a,b, Reduced induction of mammary epithelial cell apoptosis in response to γ-irradiation in IKKαhu Δmam females. […] 24 hours after irradiation, apoptosis was detected by immunostaining for active Caspase 3. a, Apoptotic nuclei of epithelial cells (arrows) are shown for representative mammary gland sections. Magnifications ×40. b, Quantification of mammary epithelial apoptosis. A minimum of 5000 nuclei was counted for each mouse. […]
For histological analysis, 5 μm sections were cut and stained with hematoxylin and eosin (H&E). […] Histomorphometric indices (proliferation and apoptosis) were calculated as the number of positive epithelial cells divided by the total number of epithelial cells, with no fewer than 1000 nuclei for Ki67 stainings and no fewer than 5000 cells for active Caspase 3 staining counted per section. […]

SMILES: CC(=O)O[C@]1(C(C)=O)CC[C@H]2[C@@H]3C[C@H](C)C4=CC(=O)CC[C@]4(C)[C@H]3CC[C@@]21C [MPA, medroxyprogesterone acetate]
- expansion of Lin-CD24+CD49f^hi cells (Lin-CD24+CD49f^hi cells; RANK^Δmam females): did not occur
- expansion of Lin-CD24+CD49f^hi cells (Lin-CD24+CD49f^hi cells; control females): two-fold expansion
- γ-irradiation-induced apoptosis of mammary epithelial cells (mammary epithelial cells; control females, MPA pellet): protected from γ-irradiation-induced apoptosis
- protective effects of MPA on γ-irradiation-induced cell death (mammary epithelial cells; loss of RANK expression on mammary epithelial cells (RANK^Δmam)): abrogated
